Assays:
Type in all cases: in vivo
Plantago major = assay: post-emergence test, field trial (Examples 1-5); conditions: FT
From the text: (§1) The expected activity of a given combination of two or three herbicides can be calculated as follows according to a calculation method by Colby (cf. COLBY, S. R.: “Calculating synergistic and antagonistic responses of herbicide combinations”, • Weeds 15, pages 20-22, 1967): • If X=% damage by herbicide (A) at an application rate of m g/ha, • Y=% damage by herbicide (B) at an application rate of n g/ha, • E=the expected damage by herbicides (A) and (B) at application rates of m and n […] and, • then for a combination:
(§2) Individual compositions comprising pelargonic acid or flazasulfuron are compared with a herbicide composition according to the invention comprising pelargonic acid and flazasulfuron.
(§3) Herbicidal activity was determined by performing a post-emergence test. […] The corresponding mixture was in the form of a spray liquor. Besides, spray liquors of individual compositions comprising pelargonic acid or flazasulfuron were used.
(§4) Tests were performed on test fields (field trials) or in pots (pot trials).

Erodium cicuta = assay: post-emergence test, field trial (Examples 1-5); conditions: 28 d, FT; pelargonic acid 5440 g/ha, flazasulfuron 50 g/ha; 8 L/ha
From the text: as §1, §2, §3, §4

Chenopodium album [1] = assay: post-emergence test, field trial (Examples 1-5); conditions: FT
From the text: as §1, §2, §3, §4

Echinochloa crusgalli = assay: post-emergence test, field trial (Examples 1-5); conditions: FT
From the text: as §1, §2, §3, §4

Festuca ovina = assay: post-emergence test, field trial (Examples 1-5); conditions: FT
From the text: as §1, §2, §3, §4

Convolvulus arvensis L. = assay: post-emergence test, field trial (Examples 1-5); conditions: 3 d, FT; pelargonic acid 5440 g/ha, flazasulfuron 50 g/ha; 8 L/ha
From the text: as §1, §2, §3, §4

Chenopodium album [2] = assay: post-emergence field trial under rows of vines, 150-200 L water/ha (Examples 6-9); conditions: flazasulfuron 40 g/ha
Stellaria media = assay: as above; conditions: flazasulfuron 40 g/ha
Bromus oxyodon = assay: as above; conditions: flazasulfuron 40 g/ha
[3] = 3 d, pelargonic acid 10880 g/ha, flazasulfuron 25 g/ha, 16 L/ha
[4] = 3 d, pelargonic acid 10880 g/ha, flazasulfuron 50 g/ha, 16 L/ha
[5] = 3 d, pelargonic acid 21760 g/ha, flazasulfuron 50 g/ha, 32 L/ha
[6] = 7 d, pelargonic acid 10880 g/ha, flazasulfuron 25 g/ha, 16 L/ha
[7] = 7 d, pelargonic acid 10880 g/ha, flazasulfuron 50 g/ha, 16 L/ha
[8] = 7 d, pelargonic acid 21760 g/ha, flazasulfuron 25 g/ha, 32 L/ha
[9] = 7 d, pelargonic acid 21760 g/ha, flazasulfuron 50 g/ha, 32 L/ha
[10] = 13 d, pelargonic acid 10880 g/ha, flazasulfuron 25 g/ha, 16 L/ha
[11] = 13 d, pelargonic acid 10880 g/ha, flazasulfuron 50 g/ha, 16 L/ha
[12] = 13 d, pelargonic acid 21760 g/ha, flazasulfuron 25 g/ha, 32 L/ha
[13] = 13 d, pelargonic acid 21760 g/ha, flazasulfuron 50 g/ha, 32 L/ha
[14] = 23 d, pelargonic acid 21760 g/ha, flazasulfuron 25 g/ha, 32 L/ha
[15] = 23 d, pelargonic acid 21760 g/ha, flazasulfuron 50 g/ha, 32 L/ha
[16] = 30 d, pelargonic acid 10880 g/ha, flazasulfuron 25 g/ha, 16 L/ha
[17] = 30 d, pelargonic acid 10880 g/ha, flazasulfuron 50 g/ha, 16 L/ha
[18] = 30 d, pelargonic acid 21760 g/ha, flazasulfuron 25 g/ha, 32 L/ha
[19] = 30 d, pelargonic acid 21760 g/ha, flazasulfuron 50 g/ha, 32 L/ha
[20] = 38 d, pelargonic acid 10880 g/ha, flazasulfuron 25 g/ha, 16 L/ha
[21] = 38 d, pelargonic acid 10880 g/ha, flazasulfuron 50 g/ha, 16 L/ha
[22] = 38 d, pelargonic acid 21760 g/ha, flazasulfuron 25 g/ha, 32 L/ha
[23] = 38 d, pelargonic acid 21760 g/ha, flazasulfuron 50 g/ha, 32 L/ha
[24] = 3 d, pelargonic acid 21760 g/ha, flazasulfuron 25 g/ha, 32 L/ha
[25] = 23 d, pelargonic acid 10880 g/ha, flazasulfuron 25 g/ha, 16 L/ha
[26] = 23 d, pelargonic acid 10880 g/ha, flazasulfuron 50 g/ha, 16 L/ha
[27] = 7 d, pelargonic acid 10880 g/ha
[28] = 14 d, pelargonic acid 5440 g/ha
[29] = 14 d, pelargonic acid 10880 g/ha
[30] = 14 d, pelargonic acid 6800 g/ha
[31] = 14 d, pelargonic acid 8160 g/ha
[32] = 28 d, pelargonic acid 5440 g/ha
[33] = 28 d, pelargonic acid 6800 g/ha
[34] = 28 d, pelargonic acid 8160 g/ha
[35] = 28 d, pelargonic acid 10880 g/ha

## CCCCCCCCC(=O)O [Pelargonic acid, nonanoic acid]
Plantago major; [3]
  herbicidal effect: 20%
Plantago major; [4]
  herbicidal effect: 20%
Plantago major; [5]
  herbicidal effect: 50%
Plantago major; [6]
  herbicidal effect: 25%
Plantago major; [7]
  herbicidal effect: 25%
Plantago major; [8]
  herbicidal effect: 40%
Plantago major; [9]
  herbicidal effect: 40%
Plantago major; [10]
  herbicidal effect: 0%
Plantago major; [11]
  herbicidal effect: 0%
Plantago major; [12]
  herbicidal effect: 0%
Plantago major; [13]
  herbicidal effect: 0%
Plantago major; [14]
  herbicidal effect: 15%
Plantago major; [15]
  herbicidal effect: 15%
Plantago major; [16]
  herbicidal effect: 0%
Plantago major; [17]
  herbicidal effect: 0%
Plantago major; [18]
  herbicidal effect: 0%
Plantago major; [19]
  herbicidal effect: 0%
Plantago major; [20]
  herbicidal effect: 0%
Plantago major; [21]
  herbicidal effect: 0%
Plantago major; [22]
  herbicidal effect: 0%
Plantago major; [23]
  herbicidal effect: 0%
Erodium cicuta
  herbicidal effect: 82.5%
Chenopodium album [1]; [3]
  herbicidal effect: 40%
Chenopodium album [1]; [4]
  herbicidal effect: 40%
Chenopodium album [1]; [24]
  herbicidal effect: 45%
Chenopodium album [1]; [5]
  herbicidal effect: 45%
Chenopodium album [1]; [6]
  herbicidal effect: 40%
Chenopodium album [1]; [7]
  herbicidal effect: 40%
Chenopodium album [1]; [8]
  herbicidal effect: 35%
Chenopodium album [1]; [9]
  herbicidal effect: 35%
Chenopodium album [1]; [10]
  herbicidal effect: 10%
Chenopodium album [1]; [11]
  herbicidal effect: 10%
Chenopodium album [1]; [12]
  herbicidal effect: 10%
Chenopodium album [1]; [13]
  herbicidal effect: 10%
Chenopodium album [1]; [25]
  herbicidal effect: 15%
Chenopodium album [1]; [14]
  herbicidal effect: 40%
Chenopodium album [1]; [15]
  herbicidal effect: 40%
Chenopodium album [1]; [16]
  herbicidal effect: 0%
Chenopodium album [1]; [17]
  herbicidal effect: 0%
Chenopodium album [1]; [18]
  herbicidal effect: 0%
Chenopodium album [1]; [19]
  herbicidal effect: 0%
Chenopodium album [1]; [20]
  herbicidal effect: 15%
Chenopodium album [1]; [21]
  herbicidal effect: 15%
Chenopodium album [1]; [22]
  herbicidal effect: 30%
Chenopodium album [1]; [23]
  herbicidal effect: 30%
Echinochloa crusgalli; 3 d, pelargonic acid 5440 g/ha, flazasulfuron 50 g/ha, 8 L/ha
  herbicidal effect: 51.3%
Echinochloa crusgalli; [3]
  herbicidal effect: 45%
Echinochloa crusgalli; [24]
  herbicidal effect: 50%
Echinochloa crusgalli; 7 d, pelargonic acid 5440 g/ha, flazasulfuron 50 g/ha, 8 L/ha
  herbicidal effect: 30.8%
Echinochloa crusgalli; [6]
  herbicidal effect: 30%
Echinochloa crusgalli; [7]
  herbicidal effect: 30%
Echinochloa crusgalli; [9]
  herbicidal effect: 45%
Echinochloa crusgalli; 12 d, pelargonic acid 5440 g/ha, flazasulfuron 50 g/ha, 8 L/ha
  herbicidal effect: 5%
Echinochloa crusgalli; [10]
  herbicidal effect: 0%
Echinochloa crusgalli; [11]
  herbicidal effect: 0%
Echinochloa crusgalli; [12]
  herbicidal effect: 0%
Echinochloa crusgalli; [13]
  herbicidal effect: 0%
Echinochloa crusgalli; [25]
  herbicidal effect: 10%
Echinochloa crusgalli; [26]
  herbicidal effect: 10%
Echinochloa crusgalli; [14]
  herbicidal effect: 10%
Echinochloa crusgalli; [15]
  herbicidal effect: 10%
Echinochloa crusgalli; 26 d, pelargonic acid 5440 g/ha, flazasulfuron 50 g/ha, 8 L/ha
  herbicidal effect: 0%
Echinochloa crusgalli; [16]
  herbicidal effect: 0%
Echinochloa crusgalli; [18]
  herbicidal effect: 0%
Echinochloa crusgalli; [20]
  herbicidal effect: 0%
Echinochloa crusgalli; [22]
  herbicidal effect: 0%
Echinochloa crusgalli; 72 d, pelargonic acid 5440 g/ha, flazasulfuron 50 g/ha, 8 L/ha
  herbicidal effect: 0%
Festuca ovina; [3]
  herbicidal effect: 20%
Festuca ovina; [24]
  herbicidal effect: 45%
Festuca ovina; [6]
  herbicidal effect: 20%
Festuca ovina; [7]
  herbicidal effect: 20%
Festuca ovina; [8]
  herbicidal effect: 30%
Festuca ovina; [9]
  herbicidal effect: 30%
Festuca ovina; [10]
  herbicidal effect: 0%
Festuca ovina; [11]
  herbicidal effect: 0%
Festuca ovina; [12]
  herbicidal effect: 0%
Festuca ovina; [13]
  herbicidal effect: 0%
Festuca ovina; [25]
  herbicidal effect: 0%
Festuca ovina; [26]
  herbicidal effect: 0%
Festuca ovina; [14]
  herbicidal effect: 0%
Festuca ovina; [15]
  herbicidal effect: 0%
Festuca ovina; [16]
  herbicidal effect: 0%
Festuca ovina; [18]
  herbicidal effect: 20%
Festuca ovina; [20]
  herbicidal effect: 0%
Festuca ovina; [22]
  herbicidal effect: 0%
Convolvulus arvensis L.
  herbicidal effect: 11.3%
Chenopodium album [2]; 7 d, pelargonic acid 5440 g/ha
  herbicidal effect: 60%
Chenopodium album [2]; [27]
  herbicidal effect: 91%
Chenopodium album [2]; [28]
  herbicidal effect: 60%
Chenopodium album [2]; [29]
  herbicidal effect: 91%
Chenopodium album [2]; 31 d, pelargonic acid 5440 g/ha
  herbicidal effect: 45%
Chenopodium album [2]; 31 d, pelargonic acid 8160 g/ha
  herbicidal effect: 74%
Chenopodium album [2]; 31 d, pelargonic acid 10880 g/ha
  herbicidal effect: 78%
Chenopodium album [2]; 58 d, pelargonic acid 5440 g/ha
  herbicidal effect: 23%
Chenopodium album [2]; 58 d, pelargonic acid 6800 g/ha
  herbicidal effect: 35%
Chenopodium album [2]; 58 d, pelargonic acid 8160 g/ha
  herbicidal effect: 65%
Chenopodium album [2]; 58 d, pelargonic acid 10880 g/ha
  herbicidal effect: 65%
Stellaria media; 7 d, pelargonic acid 8160 g/ha
  herbicidal effect: 49%
Stellaria media; [27]
  herbicidal effect: 54%
Stellaria media; [28]
  herbicidal effect: 69%
Stellaria media; [30]
  herbicidal effect: 75%
Stellaria media; [31]
  herbicidal effect: 66%
Stellaria media; [29]
  herbicidal effect: 80%
Stellaria media; [32]
  herbicidal effect: 80%
Stellaria media; [33]
  herbicidal effect: 84%
Stellaria media; [34]
  herbicidal effect: 86%
Stellaria media; [35]
  herbicidal effect: 93%
Bromus oxyodon; 7 d, pelargonic acid 5440 g/ha
  herbicidal effect: 10%
Bromus oxyodon; 7 d, pelargonic acid 6800 g/ha
  herbicidal effect: 11%
Bromus oxyodon; 7 d, pelargonic acid 8160 g/ha
  herbicidal effect: 15%
Bromus oxyodon; [27]
  herbicidal effect: 18%
Bromus oxyodon; [28]
  herbicidal effect: 11%
Bromus oxyodon; [30]
  herbicidal effect: 16%
Bromus oxyodon; [31]
  herbicidal effect: 20%
Bromus oxyodon; [29]
  herbicidal effect: 23%
Bromus oxyodon; [32]
  herbicidal effect: 8%
Bromus oxyodon; [33]
  herbicidal effect: 11%
Bromus oxyodon; [34]
  herbicidal effect: 16%
Bromus oxyodon; [35]
  herbicidal effect: 18%
